Reference: article PMC7347136 (PLoS ONE, 2020)

Experiments:
Format in all cases: biochemical
CDK2/cyclin E = biological target: T1, CDK2/cyclin E (Homo sapiens, UniProt P24941); experiment: Kinase assay with recombinant CDK/cyclins (Cyclacel)
T1 construct: made in house
Procedure: (§1) Kinase assays for CDK2, CDK4, CDK7 and CDK9 were carried out as described previously using recombinant CDK/cyclins generated at Cyclacel Ltd, Dundee, UK [29, 34, 35].

CDK4/cyclin D3 = biological target: T2, CDK4/cyclin D3 (Homo sapiens, UniProt P11802); experiment: as above
T2 construct: made in house
T2 sequence (P11802 whole entry): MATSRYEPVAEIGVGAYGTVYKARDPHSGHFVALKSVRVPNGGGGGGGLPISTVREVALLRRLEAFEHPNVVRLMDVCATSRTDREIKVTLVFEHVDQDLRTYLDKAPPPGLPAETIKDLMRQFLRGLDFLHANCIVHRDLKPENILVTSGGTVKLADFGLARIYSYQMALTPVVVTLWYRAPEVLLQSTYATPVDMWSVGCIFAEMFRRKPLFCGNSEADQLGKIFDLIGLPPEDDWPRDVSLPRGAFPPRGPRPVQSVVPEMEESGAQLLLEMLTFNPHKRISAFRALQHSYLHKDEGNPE
T2 sequence (P30281 whole entry partner): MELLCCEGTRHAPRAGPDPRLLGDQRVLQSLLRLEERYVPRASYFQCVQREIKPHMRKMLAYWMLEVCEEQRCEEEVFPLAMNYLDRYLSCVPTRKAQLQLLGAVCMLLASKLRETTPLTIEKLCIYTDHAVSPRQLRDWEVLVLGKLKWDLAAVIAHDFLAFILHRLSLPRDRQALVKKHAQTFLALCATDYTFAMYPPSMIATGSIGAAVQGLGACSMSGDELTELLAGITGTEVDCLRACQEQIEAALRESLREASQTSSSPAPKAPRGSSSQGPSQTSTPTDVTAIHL
Procedure: as §1

CDK7/cyclin H1/MAT1 = biological target: T3, CDK7/cyclin H1/MAT1 (Homo sapiens, UniProt P50613); experiment: as above
T3 construct: purchased Carna Biosciences
Procedure: as §1

MET = biological target: T4, MET (Homo sapiens, UniProt P08581); experiment: Carna kinase panel screen; conditions: read-out: % Inhibition ± SD
T4 construct: purchased Carna Biosciences
Procedure, shortened: (§2)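 Inhibition was measured across ten compound concentrations at Km-approximating ATP. A four-parameter logistic curve fitted to the percentage-inhibition data yields the IC50.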

MSK1 = biological target: T5, MSK1 (Homo sapiens, UniProt O75582); experiment: Carna kinase panel screen; conditions: read-out: % Inhibition ± SD
T5 construct: purchased Carna Biosciences
Procedure, shortened: as §2

TBK1 = biological target: T6, TBK1 (Homo sapiens, UniProt Q9UHD2); experiment: Carna kinase panel screen; conditions: read-out: % Inhibition ± SD
T6 construct: purchased Carna Biosciences
T6 sequence (Q9UHD2 whole entry): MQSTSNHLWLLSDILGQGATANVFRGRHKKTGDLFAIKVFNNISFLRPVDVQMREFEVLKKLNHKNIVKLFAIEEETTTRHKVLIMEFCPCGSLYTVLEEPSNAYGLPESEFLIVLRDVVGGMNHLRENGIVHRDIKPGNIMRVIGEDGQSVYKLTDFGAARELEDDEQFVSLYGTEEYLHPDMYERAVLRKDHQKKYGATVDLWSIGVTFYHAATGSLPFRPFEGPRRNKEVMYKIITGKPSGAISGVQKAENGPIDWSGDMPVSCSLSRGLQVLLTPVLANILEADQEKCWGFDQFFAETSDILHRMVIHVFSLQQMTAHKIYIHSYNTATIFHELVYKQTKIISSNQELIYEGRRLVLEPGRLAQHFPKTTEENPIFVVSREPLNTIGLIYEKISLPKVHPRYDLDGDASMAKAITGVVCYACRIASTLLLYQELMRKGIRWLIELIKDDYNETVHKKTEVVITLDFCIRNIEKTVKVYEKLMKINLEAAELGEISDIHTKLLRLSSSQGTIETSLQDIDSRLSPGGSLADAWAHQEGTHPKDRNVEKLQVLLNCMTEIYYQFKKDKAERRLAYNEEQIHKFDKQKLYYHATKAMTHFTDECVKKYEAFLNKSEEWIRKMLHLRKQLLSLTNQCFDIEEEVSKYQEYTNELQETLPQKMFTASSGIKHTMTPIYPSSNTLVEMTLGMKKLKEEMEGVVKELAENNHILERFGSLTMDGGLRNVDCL
Procedure, shortened: as §2

MST4 = biological target: T7, MST4 (Homo sapiens, UniProt Q9P289); experiment: Carna kinase panel screen; conditions: read-out: % Inhibition ± SD
T7 construct: purchased Carna Biosciences
Procedure, shortened: as §2

PIM1 = biological target: T8, PIM1 (Homo sapiens, UniProt P11309); experiment: Carna kinase panel screen; conditions: read-out: % Inhibition ± SD
T8 construct: purchased Carna Biosciences
Procedure, shortened: as §2

DYRK1B = biological target: T9, DYRK1B (Homo sapiens, UniProt Q9Y463); experiment: Carna kinase panel screen; conditions: read-out: % Inhibition ± SD
T9 construct: purchased Carna Biosciences
Procedure, shortened: as §2

PKCi = biological target: T10, PKCi (Homo sapiens, UniProt P41743); experiment: Carna kinase panel screen; conditions: read-out: % Inhibition ± SD
T10 construct: purchased Carna Biosciences
Procedure, shortened: as §2

EGFR[L858R] = biological target: T11, EGFR[L858R] (Homo sapiens, UniProt P00533, L858R); experiment: Carna kinase panel screen; conditions: read-out: % Inhibition ± SD
T11 construct: purchased Carna Biosciences
Procedure, shortened: as §2

EGFR[T790M] = biological target: T12, EGFR[T790M] (Homo sapiens, UniProt P00533, T790M); experiment: Carna kinase panel screen; conditions: read-out: % Inhibition ± SD
T12 construct: purchased Carna Biosciences
Procedure, shortened: as §2

MST3 = biological target: T13, MST3 (Homo sapiens, UniProt Q9Y6E0); experiment: Carna kinase panel screen; conditions: read-out: % Inhibition ± SD
T13 construct: purchased Carna Biosciences
Procedure, shortened: as §2

ITK = biological target: T14, ITK (Homo sapiens, UniProt Q08881); experiment: Carna kinase panel screen; conditions: read-out: % Inhibition ± SD
T14 construct: purchased Carna Biosciences
Procedure, shortened: (§3)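 IC50 determined by fitting percentage inhibition from a 10-point dilution series, run at ATP approximating Km, to a four-parameter logistic curve.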

CK1d = biological target: T15, CK1d (Homo sapiens, UniProt P48730); experiment: Carna kinase panel screen; conditions: read-out: % Inhibition ± SD
T15 construct: purchased Carna Biosciences
Procedure, shortened: (§4)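 Read-out is percent inhibition, plotted against compound concentration and fitted to a four-parameter logistic model to give IC50. Curves comprised 10 points, with ATP approximating Km.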

CaMK2a = biological target: T16, CaMK2a (Homo sapiens, UniProt Q9UQM7); experiment: Carna kinase panel screen; conditions: read-out: % Inhibition ± SD
T16 construct: purchased Carna Biosciences
T16 sequence (Q9UQM7 whole entry): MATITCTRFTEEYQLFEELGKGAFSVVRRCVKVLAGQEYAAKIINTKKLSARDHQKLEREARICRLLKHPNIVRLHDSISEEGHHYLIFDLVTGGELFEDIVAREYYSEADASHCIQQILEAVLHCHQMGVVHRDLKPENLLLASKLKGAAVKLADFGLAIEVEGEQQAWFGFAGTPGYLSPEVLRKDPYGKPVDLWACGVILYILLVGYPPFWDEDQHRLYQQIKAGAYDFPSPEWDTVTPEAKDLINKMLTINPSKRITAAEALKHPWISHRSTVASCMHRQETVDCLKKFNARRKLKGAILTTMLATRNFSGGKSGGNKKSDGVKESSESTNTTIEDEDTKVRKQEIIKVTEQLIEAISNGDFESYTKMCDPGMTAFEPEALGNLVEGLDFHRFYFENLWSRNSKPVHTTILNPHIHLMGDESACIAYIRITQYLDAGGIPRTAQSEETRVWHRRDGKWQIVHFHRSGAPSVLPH
Procedure, shortened: as §3

AurA = biological target: T17, AurA (Homo sapiens, UniProt O14965); experiment: Carna kinase panel screen; conditions: read-out: % Inhibition ± SD
T17 construct: purchased Carna Biosciences
T17 sequence (O14965 whole entry): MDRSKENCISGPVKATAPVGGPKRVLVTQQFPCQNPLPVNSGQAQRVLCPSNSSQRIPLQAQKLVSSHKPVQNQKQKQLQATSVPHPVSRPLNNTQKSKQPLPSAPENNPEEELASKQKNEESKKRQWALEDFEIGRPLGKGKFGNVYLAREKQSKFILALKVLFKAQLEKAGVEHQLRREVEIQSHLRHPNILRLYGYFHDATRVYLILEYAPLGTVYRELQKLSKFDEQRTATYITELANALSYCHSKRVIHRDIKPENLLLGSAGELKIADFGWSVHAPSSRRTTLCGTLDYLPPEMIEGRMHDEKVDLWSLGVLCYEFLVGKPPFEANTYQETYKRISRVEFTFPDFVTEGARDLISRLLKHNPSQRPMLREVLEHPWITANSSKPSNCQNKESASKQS
Procedure, shortened: as §2

PIM2 = biological target: T18, PIM2 (Homo sapiens, UniProt Q9P1W9); experiment: Carna kinase panel screen; conditions: read-out: % Inhibition ± SD
T18 construct: purchased Carna Biosciences
T18 sequence (Q9P1W9 whole entry): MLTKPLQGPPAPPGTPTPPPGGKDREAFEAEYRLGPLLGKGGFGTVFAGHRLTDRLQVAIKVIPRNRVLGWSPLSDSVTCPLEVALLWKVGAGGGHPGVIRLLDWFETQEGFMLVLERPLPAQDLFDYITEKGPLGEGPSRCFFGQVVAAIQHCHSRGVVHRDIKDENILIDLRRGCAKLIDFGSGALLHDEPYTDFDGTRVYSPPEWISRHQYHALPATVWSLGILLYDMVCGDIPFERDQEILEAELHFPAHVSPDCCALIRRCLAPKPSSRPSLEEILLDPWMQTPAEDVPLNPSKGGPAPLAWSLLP
Procedure, shortened: as §2

MARK3 = biological target: T19, MARK3 (Homo sapiens, UniProt P27448); experiment: Carna kinase panel screen; conditions: read-out: % Inhibition ± SD
T19 construct: purchased Carna Biosciences
Procedure, shortened: as §2

GSK3b = biological target: T20, GSK3b (Homo sapiens, UniProt P49841); experiment: Carna kinase panel screen; conditions: read-out: % Inhibition ± SD
T20 construct: purchased Carna Biosciences
Procedure, shortened: as §2

NEK6 = biological target: T21, NEK6 (Homo sapiens, UniProt Q9HC98); experiment: Carna kinase panel screen; conditions: read-out: % Inhibition ± SD
T21 construct: purchased Carna Biosciences
Procedure, shortened: as §2

MAP2K4 = biological target: T22, MAP2K4 (Homo sapiens, UniProt P45985); experiment: Carna kinase panel screen; conditions: read-out: % Inhibition ± SD
T22 construct: purchased Carna Biosciences
Procedure, shortened: as §2

DCAMKL2 = biological target: T23, DCAMKL2 (Homo sapiens, UniProt Q8N568); experiment: Carna kinase panel screen; conditions: read-out: % Inhibition ± SD
T23 construct: purchased Carna Biosciences
Procedure, shortened: as §2

PKCg = biological target: T24, PKCg (Homo sapiens, UniProt P05129); experiment: Carna kinase panel screen; conditions: read-out: % Inhibition ± SD
T24 construct: purchased Carna Biosciences
Procedure, shortened: as §2

RSK1 = biological target: T25, RSK1 (Homo sapiens, UniProt Q15418); experiment: Carna kinase panel screen; conditions: read-out: % Inhibition ± SD
T25 construct: purchased Carna Biosciences
Procedure, shortened: as §2

PKN1 = biological target: T26, PKN1 (Homo sapiens, UniProt Q16512); experiment: Carna kinase panel screen; conditions: read-out: % Inhibition ± SD
T26 construct: purchased Carna Biosciences
Procedure, shortened: as §2

NEK7 = biological target: T27, NEK7 (Homo sapiens, UniProt Q8TDX7); experiment: Carna kinase panel screen; conditions: read-out: % Inhibition ± SD
T27 construct: purchased Carna Biosciences
T27 sequence (Q8TDX7 whole entry): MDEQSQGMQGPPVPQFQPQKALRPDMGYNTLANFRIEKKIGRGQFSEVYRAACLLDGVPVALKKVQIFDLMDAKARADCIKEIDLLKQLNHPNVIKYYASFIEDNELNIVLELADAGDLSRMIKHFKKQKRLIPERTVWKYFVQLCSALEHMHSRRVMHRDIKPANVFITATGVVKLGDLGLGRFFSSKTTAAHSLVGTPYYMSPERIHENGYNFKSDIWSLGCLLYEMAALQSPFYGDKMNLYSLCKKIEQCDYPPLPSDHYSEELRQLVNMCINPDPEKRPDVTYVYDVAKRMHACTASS
Procedure, shortened: as §2

TAK1 = biological target: T28, TAK1 (Homo sapiens, UniProt O43318); experiment: Carna kinase panel screen; conditions: read-out: % Inhibition ± SD
T28 construct: purchased Carna Biosciences
Procedure, shortened: as §2

PKCq = biological target: T29, PKCq (Homo sapiens, UniProt Q04759); experiment: Carna kinase panel screen; conditions: read-out: % Inhibition ± SD
T29 construct: purchased Carna Biosciences
T29 sequence (Q04759 whole entry): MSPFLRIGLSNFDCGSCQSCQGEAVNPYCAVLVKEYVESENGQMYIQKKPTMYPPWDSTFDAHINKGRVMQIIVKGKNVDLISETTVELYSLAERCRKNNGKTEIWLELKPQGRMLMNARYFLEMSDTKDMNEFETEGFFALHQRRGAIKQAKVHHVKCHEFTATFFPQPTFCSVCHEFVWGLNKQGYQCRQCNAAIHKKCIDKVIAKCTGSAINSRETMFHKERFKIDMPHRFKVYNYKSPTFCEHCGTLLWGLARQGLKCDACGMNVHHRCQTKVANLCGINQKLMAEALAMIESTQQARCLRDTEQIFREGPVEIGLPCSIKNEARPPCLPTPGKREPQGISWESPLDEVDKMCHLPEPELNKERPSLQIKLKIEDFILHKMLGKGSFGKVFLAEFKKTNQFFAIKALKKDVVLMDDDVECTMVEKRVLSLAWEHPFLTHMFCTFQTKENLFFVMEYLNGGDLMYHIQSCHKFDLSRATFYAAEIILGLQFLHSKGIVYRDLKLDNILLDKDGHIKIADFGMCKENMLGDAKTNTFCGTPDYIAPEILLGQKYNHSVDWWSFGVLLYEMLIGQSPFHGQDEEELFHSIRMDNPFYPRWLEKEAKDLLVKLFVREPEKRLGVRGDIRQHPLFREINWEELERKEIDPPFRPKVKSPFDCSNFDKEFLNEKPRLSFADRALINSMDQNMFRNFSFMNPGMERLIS
Procedure, shortened: as §2

MAP2K6 = biological target: T30, MAP2K6 (Homo sapiens, UniProt P52564); experiment: Carna kinase panel screen; conditions: read-out: % Inhibition ± SD
T30 construct: purchased Carna Biosciences
Procedure, shortened: as §2

CGK2 = biological target: T31, CGK2 (Homo sapiens, UniProt Q13237); experiment: Carna kinase panel screen; conditions: read-out: % Inhibition ± SD
T31 construct: purchased Carna Biosciences
T31 sequence (Q13237 whole entry): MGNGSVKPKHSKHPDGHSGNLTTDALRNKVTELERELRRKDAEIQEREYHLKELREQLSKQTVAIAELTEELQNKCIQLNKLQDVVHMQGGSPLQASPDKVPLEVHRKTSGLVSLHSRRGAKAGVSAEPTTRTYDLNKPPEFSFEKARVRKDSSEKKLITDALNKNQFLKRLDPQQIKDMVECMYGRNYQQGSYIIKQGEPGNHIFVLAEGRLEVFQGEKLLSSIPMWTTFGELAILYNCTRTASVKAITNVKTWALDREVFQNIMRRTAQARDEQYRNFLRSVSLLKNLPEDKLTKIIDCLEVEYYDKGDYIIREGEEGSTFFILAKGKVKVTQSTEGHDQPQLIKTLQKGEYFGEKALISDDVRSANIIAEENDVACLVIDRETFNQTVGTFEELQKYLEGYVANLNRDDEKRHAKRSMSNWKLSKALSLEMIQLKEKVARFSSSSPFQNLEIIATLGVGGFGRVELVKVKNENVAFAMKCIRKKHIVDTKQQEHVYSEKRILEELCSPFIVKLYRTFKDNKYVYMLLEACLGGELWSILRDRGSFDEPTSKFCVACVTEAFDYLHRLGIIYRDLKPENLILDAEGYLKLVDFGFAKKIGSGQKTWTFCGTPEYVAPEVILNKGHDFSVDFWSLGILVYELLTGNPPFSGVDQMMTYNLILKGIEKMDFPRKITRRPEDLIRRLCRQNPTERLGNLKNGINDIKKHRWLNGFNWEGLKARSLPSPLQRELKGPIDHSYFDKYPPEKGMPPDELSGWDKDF
Procedure, shortened: as §2

CRIK = biological target: T32, CRIK (Homo sapiens, UniProt O14578); experiment: Carna kinase panel screen; conditions: read-out: % Inhibition ± SD
T32 construct: purchased Carna Biosciences
Procedure, shortened: as §2

LOK = biological target: T33, LOK (Homo sapiens, UniProt O94804); experiment: Carna kinase panel screen; conditions: read-out: % Inhibition ± SD
T33 construct: purchased Carna Biosciences
Procedure, shortened: as §2

MELK = biological target: T34, MELK (Homo sapiens, UniProt Q14680); experiment: Carna kinase panel screen; conditions: read-out: % Inhibition ± SD
T34 construct: purchased Carna Biosciences
T34 sequence (Q14680 whole entry): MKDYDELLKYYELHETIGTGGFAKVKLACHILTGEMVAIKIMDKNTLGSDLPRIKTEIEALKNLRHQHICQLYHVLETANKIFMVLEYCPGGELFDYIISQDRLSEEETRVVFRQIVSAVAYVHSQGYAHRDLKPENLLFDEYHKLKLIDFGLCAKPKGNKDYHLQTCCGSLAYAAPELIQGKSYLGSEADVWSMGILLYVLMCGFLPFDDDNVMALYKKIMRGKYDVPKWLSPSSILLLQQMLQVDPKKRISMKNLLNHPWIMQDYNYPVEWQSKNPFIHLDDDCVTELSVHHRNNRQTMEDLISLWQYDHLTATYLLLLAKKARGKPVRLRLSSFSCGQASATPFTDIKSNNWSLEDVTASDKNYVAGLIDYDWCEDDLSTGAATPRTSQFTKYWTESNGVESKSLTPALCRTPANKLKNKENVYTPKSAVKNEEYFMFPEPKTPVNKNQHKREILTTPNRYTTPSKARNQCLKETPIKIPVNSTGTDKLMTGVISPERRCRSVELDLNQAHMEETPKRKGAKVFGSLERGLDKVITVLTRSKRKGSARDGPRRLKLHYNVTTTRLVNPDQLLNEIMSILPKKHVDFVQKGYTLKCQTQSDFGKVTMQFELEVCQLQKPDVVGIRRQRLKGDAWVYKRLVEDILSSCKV
Procedure, shortened: as §2

Erk1 = biological target: T35, Erk1 (Homo sapiens, UniProt P27361); experiment: Carna kinase panel screen; conditions: read-out: % Inhibition ± SD
T35 construct: purchased Carna Biosciences
Procedure, shortened: as §3

PHKG2 = biological target: T36, PHKG2 (Homo sapiens, UniProt P15735); experiment: Carna kinase panel screen; conditions: read-out: % Inhibition ± SD
T36 construct: purchased Carna Biosciences
Procedure, shortened: as §4

EphA6 = biological target: T37, EphA6 (Homo sapiens, UniProt Q9UF33); experiment: Carna kinase panel screen; conditions: read-out: % Inhibition ± SD
T37 construct: purchased Carna Biosciences
Procedure, shortened: as §2

LIMK1 = biological target: T38, LIMK1 (Homo sapiens, UniProt P53667); experiment: Carna kinase panel screen; conditions: read-out: % Inhibition ± SD
T38 construct: purchased Carna Biosciences
Procedure, shortened: as §3

`CC[C@H](Nc1nc(NCc2cnc(C)cc2C)c2ncn(C(C)C)c2n1)[C@@H](C)O` [Fadraciclib, 2-pentanol, 3-[[6-[[(4,6-dimethyl-3-pyridinyl)methyl]amino]-9-(1-methylethyl)-9Hpurin-2-yl]amino]-, (2R,3S)] showed an IC50 (CDK2/cyclin E) of 20 ± 1 nM, an IC50 (CDK4/cyclin D3) greater than 10000 nM and an IC50 (CDK7/cyclin H1/MAT1) of 730 ± 160 nM. It also gave an inhibition at 1 µM (MET) of -8.3 ± 0.1%, an inhibition at 1 µM (MSK1) of 5.5 ± 0.4% and an inhibition at 1 µM (TBK1) of -4.8 ± 0.1%. The inhibition at 1 µM (MST4) was -2.1%, the inhibition at 1 µM (PIM1) was 7.4 ± 0.1% and the inhibition at 1 µM (DYRK1B) was 15.5 ± 1.3%. The inhibition at 1 µM (PKCi) was -13.6 ± 0.5%, the inhibition at 1 µM (EGFR[L858R]) was 1.7% and the inhibition at 1 µM (EGFR[T790M]) was -9.6 ± 0.1%. For the same compound, the inhibition at 1 µM (MST3) was -16.4 ± 0.7%, the inhibition at 1 µM (ITK) was 2.3 ± 0.1% and the inhibition at 1 µM (CK1d) was 13.8 ± 0.4%. It also gave an inhibition at 1 µM (CaMK2a) of -3.6 ± 0.1%, an inhibition at 1 µM (AurA) of -16.2 ± 0.4% and an inhibition at 1 µM (PIM2) of 2.9 ± 0.2%. For the same compound, the inhibition at 1 µM (MARK3) was -0.9 ± 0.1%, the inhibition at 1 µM (GSK3b) was 23.8 ± 1% and the inhibition at 1 µM (NEK6) was -16.6 ± 0.5%. For the same compound, the inhibition at 1 µM (MAP2K4) was -2.7 ± 0.1%, the inhibition at 1 µM (DCAMKL2) was -12.4 ± 0.1% and the inhibition at 1 µM (PKCg) was 17.2%. For the same compound, the inhibition at 1 µM (RSK1) was 5.1%, the inhibition at 1 µM (PKN1) was -17.7 ± 0.1% and the inhibition at 1 µM (NEK7) was 0.9%. The inhibition at 1 µM (TAK1) was 0.3%, the inhibition at 1 µM (PKCq) was 0.7% and the inhibition at 1 µM (MAP2K6) was 0.7%. For the same compound, the inhibition at 1 µM (CGK2) was -12.6 ± 0.5%, the inhibition at 1 µM (CRIK) was -1.2% and the inhibition at 1 µM (LOK) was -23.8 ± 0.3%. For the same compound, the inhibition at 1 µM (MELK) was 5 ± 0.1%, the inhibition at 1 µM (Erk1) was -6.5% and the inhibition at 1 µM (PHKG2) was -10 ± 0.1%. For the same compound, the inhibition at 1 µM (EphA6) was 5.7 ± 0.3% and the inhibition at 1 µM (LIMK1) was 12.3 ± 0.4%.
